Assay results published in patent US5902736A, “Process for the production of D-α-amino acids by hydrolysis of the corresponding N-carbamyl derivative” (priority 1992, dated 1999).

Columns and labels:
Format in all cases: cell-based
[1] = tested on: Blastobacter sp. A 17 p-4; test: Promoters for the production of Blastobacter sp. A 17 p-4 decarbamylase; conditions: for decarbamylase yield of Blastobacter sp. A 17 p-4, effect of metal ions: 2 mM metal ion plus 0.15% (w/v) uracil in medium D, 4 days at 28° C.; for decarbamylase yield of Blastobacter sp. A 17 p-4: 0.15% (w/v) additive in medium D, 3 days at 28° C., D-HPG formation at 40° C.
Procedure: The strain was cultured at 28° C. for 3 days in the medium D (as defined in Example 4) additionally containing 0.15% (w/v) of a substance as listed in FIG. 7. Then, D-HPG was formed in the same way as in Example 4 but that the reaction temperature was 40° C., and quantitated by HPLC.
In order to examine the effects of metal ions on the enzyme productivity, the strain was cultured at 28° C. for 4 days in the medium D additionally containing 0.15% (w/v) of uracil and 2 mM a metal ion as listed in FIG. 8. It was found by quantitating D-HPG that ions such as Fe^2+, Fe^3+, Li^+, Cs^+, Be^2+, Mg^2+, Mn^2+, Co^2+ and Al^3+ increased the decarbamylase yield.

[2] = tested on: decarbamylase of Blastobacter sp. A 17 p-4; test: Substrate specificity of decarbamylase, cells of Blastobacter sp. A 17 p-4; conditions: 1% (w/v) substrate, 200 mM potassium phosphate, cell suspension, 24 hours at 30° C.
Procedure: For the determination of substrate specificity of decarbamylase of Comamonas sp. E 222 C and Blastobacter sp. A 17 p-4, these strains were cultured at 28° C. in the medium C (as described in Example 2) for 1 day (E 222 C) and 7 days (A 17 p-4). […] (E 222 C) or 50° C. (A 17 p-4).

[3] = tested on: decarbamylase of Comamonas sp. E 222 C; test: Substrate specificity of decarbamylase, cells of Comamonas sp. E 222 C; conditions: cell suspension, 24 hours at 30° C.; for Substrate conversion, Comamonas sp. E 222 c (conversion to amino acids): 1% (w/v) substrate, 200 mM potassium phosphate
Procedure: For the determination of substrate specificity of decarbamylase of Comamonas sp. E 222 C and Blastobacter sp. A 17 p-4, these strains were cultured at 28° C. in the medium C (as described in Example 2) for 1 day (E 222 C) and 7 days (A 17 p-4). Three ml of the culture medium was centrifuged to separate the microorganism, which was suspended in 300 μl of a substrate solution (200 mM potassium phosphate, 1% (w/v) a substrate as listed below) and incubated for 24 hours at 30° C. (E 222 C) or 50° C. (A 17 p-4).

Comamonas sp. E 222 C = test: Promoters for the production of Comamonas sp. E 222 C decarbamylase; conditions: 0.15% (w/v) additive in medium D, 2 days at 28° C.; D-HPG from 35 mM C-D-HPG, 24 hours at 30° C.
Procedure: The strain was cultured in a nutrient medium D (1 g/l KH2 PO4, 1 g/l K2 HPO4, 0.3 g/l MgSO4 ·7H2 O, 3 g/l yeast extract, 3 g/l meat extract, 10 g/l glycerol, 2 g/l polypeptone; pH 7.0) for 2 days at 28° C. The culture medium additionally contained a substance as listed in FIG. 2 in a concentration of 0.15% (w/v).
One ml of the culture medium was centrifuged to collect the microorganism, which was suspended in 100 μl of a substrate solution (35 mM C-D-HPG, 200 mM potassium phosphate; pH 7.0). After 24 hours at 30° C., D-HPG was quantitated by HPLC according to the procedure described in Example 2.

**Q.** For [Mg+2] [Mg^2+], which “decarbamylase yield of Blastobacter sp. A 17 p-4, effect of metal ions” value [1] is on record?
**A.** increased

**Q.** How did the “Substrate conversion, Blastobacter sp. A 17 p-4 (conversion to amino acids)” value [2] turn out when C[C@@H](NC(N)=O)C(=O)O [N-Carbamyl-D-alanine] was run?
**A.** +++ (+++: <80%)

**Q.** And the “Substrate conversion, Comamonas sp. E 222 c (conversion to amino acids)” value [3]?
**A.** ++++ (++++: 100%)

**Q.** NC(=O)N[C@H](CO)C(=O)O [N-Carbamyl-D-serine] was tested. Which “Substrate conversion, Blastobacter sp. A 17 p-4 (conversion to amino acids)” value [2] did it give?
**A.** - (-: 0%)

**Q.** And the “Substrate conversion, Comamonas sp. E 222 c (conversion to amino acids)” value [3]?
**A.** + (+: <10%)

**Q.** What does the source list for CCCC(NC(N)=O)C(=O)O (racemic) [N-Carbamyl-DL-norvaline]?
**A.** Substrate conversion, Blastobacter sp. A 17 p-4 (conversion to amino acids) [2]: ++ (++: <50%); Substrate conversion, Comamonas sp. E 222 c (conversion to amino acids) [3]: ++ (++: <50%)

**Q.** How did the “decarbamylase yield of Blastobacter sp. A 17 p-4, effect of metal ions” value [1] turn out when [Al+3] [Al^3+] was run?
**A.** increased

**Q.** What does the source list for CC(C)[C@@H](NC(N)=O)C(=O)O [N-Carbamyl-D-valine]?
**A.** Substrate conversion, Blastobacter sp. A 17 p-4 (conversion to amino acids) [2]: +++ (+++: <80%); Substrate conversion, Comamonas sp. E 222 c (conversion to amino acids) [3]: ++++ (++++: 100%)

**Q.** Which results are given for CCCCC(NC(N)=O)C(=O)O (racemic) [N-Carbamyl-DL-norleucine]?
**A.** Substrate conversion, Blastobacter sp. A 17 p-4 (conversion to amino acids) [2]: ++ (++: <50%); Substrate conversion, Comamonas sp. E 222 c (conversion to amino acids) [3]: ++ (++: <50%)

**Q.** O=C1NC(=O)C(c2ccc(O)cc2)N1 (racemic) [DL-5-p-Hydroxyphenylhydantoin] was tested. Which “Substrate conversion, Blastobacter sp. A 17 p-4 (conversion to amino acids)” value [2] did it give?
**A.** ++ (++: <50%)

**Q.** And the “Substrate conversion, Comamonas sp. E 222 c (conversion to amino acids)” value [3]?
**A.** - (-: 0%)

**Q.** [Cs+] [Cs^+] was tested. Which “decarbamylase yield of Blastobacter sp. A 17 p-4, effect of metal ions” value [1] did it give?
**A.** increased

**Q.** Which results are given for NC(=O)NCCC(=O)O [β-Ureidopropionic acid]?
**A.** Substrate conversion, Blastobacter sp. A 17 p-4 (conversion to amino acids) [2]: - (-: 0%); Substrate conversion, Comamonas sp. E 222 c (conversion to amino acids) [3]: ++++ (++++: 100%); hydrolysis by Comamonas sp. E 222 C, in words [3]: could hydrolize; decarbamylase productivity of Comamonas sp. E 222 C (Comamonas sp. E 222 C): improved; decarbamylase yield of Blastobacter sp. A 17 p-4 [1]: increased

**Q.** What does the source list for CC(C)C[C@@H](NC(N)=O)C(=O)O [N-Carbamyl-D-leucine]?
**A.** Substrate conversion, Blastobacter sp. A 17 p-4 (conversion to amino acids) [2]: +++ (+++: <80%); Substrate conversion, Comamonas sp. E 222 c (conversion to amino acids) [3]: ++++ (++++: 100%)

**Q.** With O=c1cc[nH]c(=O)[nH]1 [uracil] as the molecule, how does the “decarbamylase yield of Blastobacter sp. A 17 p-4” value [1] read?
**A.** increased

**Q.** With CSCCC(NC(N)=O)C(=O)O (racemic) [N-Carbamyl-DL-methionine, N-carbamyl-DL-methionine] as the molecule, how does the “Substrate conversion, Blastobacter sp. A 17 p-4 (conversion to amino acids)” value [2] read?
**A.** ++ (++: <50%)

**Q.** And the “Substrate conversion, Comamonas sp. E 222 c (conversion to amino acids)” value [3]?
**A.** ++ (++: <50%)

**Q.** What about the “decarbamylase productivity of Comamonas sp. E 222 C” value (“decarbamylase productivity” below) (Comamonas sp. E 222 C) of the same molecule?
**A.** improved

**Q.** With [Fe+2] [Fe^2+] as the molecule, how does the “decarbamylase yield of Blastobacter sp. A 17 p-4, effect of metal ions” value [1] read?
**A.** increased

**Q.** With NC(=O)N[C@@H](C(=O)O)c1ccc(O)cc1 [N-Carbamyl-D-p-hydroxyphenylglycine] as the molecule, how does the “Substrate conversion, Blastobacter sp. A 17 p-4 (conversion to amino acids)” value [2] read?
**A.** ++ (++: <50%)

**Q.** And the “Substrate conversion, Comamonas sp. E 222 c (conversion to amino acids)” value [3]?
**A.** +++ (+++: <80%)

**Q.** How did the “Substrate conversion, Blastobacter sp. A 17 p-4 (conversion to amino acids)” value [2] turn out when C[C@@H](O)[C@H](NC(N)=O)C(=O)O (racemic) [N-Carbamyl-DL-threonine] was run?
**A.** - (-: 0%)

**Q.** What about the “Substrate conversion, Comamonas sp. E 222 c (conversion to amino acids)” value [3] of the same molecule?
**A.** + (+: <10%)

**Q.** For [Be+2] [Be^2+], which “decarbamylase yield of Blastobacter sp. A 17 p-4, effect of metal ions” value [1] is on record?
**A.** increased

**Q.** How did the “Substrate conversion, Blastobacter sp. A 17 p-4 (conversion to amino acids)” value [2] turn out when CN(CC(=O)O)C(N)=O [N-Carbamyl-sarcosine] was run?
**A.** - (-: 0%)

**Q.** What about the “Substrate conversion, Comamonas sp. E 222 c (conversion to amino acids)” value [3] of the same molecule?
**A.** - (-: 0%)

**Q.** How did the “Substrate conversion, Blastobacter sp. A 17 p-4 (conversion to amino acids)” value [2] turn out when NC(=O)NC(CC(=O)O)C(=O)O (centres unmarked) [Ureidosuccinic acid] was run?
**A.** - (-: 0%)

**Q.** What about the “Substrate conversion, Comamonas sp. E 222 c (conversion to amino acids)” value [3] of the same molecule?
**A.** - (-: 0%)

**Q.** How did the “decarbamylase yield of Blastobacter sp. A 17 p-4, effect of metal ions” value [1] turn out when [Co+2] [Co^2+] was run?
**A.** increased

**Q.** NC(N)=O [urea] was tested. Which “decarbamylase productivity” value (Comamonas sp. E 222 C) did it give?
**A.** improved

**Q.** With N[C@@H](C(=O)O)c1ccccc1 [D-phenylglycine] as the molecule, how does the “decarbamylase productivity” value (Comamonas sp. E 222 C) read?
**A.** improved

**Q.** For O=C1CCNC(=O)N1 [dihydrouracil], which “decarbamylase yield of Blastobacter sp. A 17 p-4” value [1] is on record?
**A.** increased

**Q.** [Li+] [Li^+] was tested. Which “decarbamylase yield of Blastobacter sp. A 17 p-4, effect of metal ions” value [1] did it give?
**A.** increased

**Q.** For NC(=O)N[C@H](Cc1ccccc1)C(=O)O [N-Carbamyl-D-phenylalanine, N-carbamyl-D-phenylalanine], which “Substrate conversion, Blastobacter sp. A 17 p-4 (conversion to amino acids)” value [2] is on record?
**A.** +++ (+++: <80%)

**Q.** What about the “Substrate conversion, Comamonas sp. E 222 c (conversion to amino acids)” value [3] of the same molecule?
**A.** ++++ (++++: 100%)

**Q.** How did the “Substrate conversion, Blastobacter sp. A 17 p-4 (conversion to amino acids)” value [2] turn out when CC1NC(=O)NC1=O (racemic) [DL-5-Methylhydantoin] was run?
**A.** ++ (++: <50%)

**Q.** What about the “Substrate conversion, Comamonas sp. E 222 c (conversion to amino acids)” value [3] of the same molecule?
**A.** - (-: 0%)

**Q.** Which “Substrate conversion, Blastobacter sp. A 17 p-4 (conversion to amino acids)” value [2] does the source give for O=C1NC(=O)C(c2ccccc2)N1 (racemic) [DL-5-Phenylhydantoin] here?
**A.** ++ (++: <50%)

**Q.** And the “Substrate conversion, Comamonas sp. E 222 c (conversion to amino acids)” value [3]?
**A.** - (-: 0%)

**Q.** Which “decarbamylase yield of Blastobacter sp. A 17 p-4, effect of metal ions” value [1] does the source give for [Mn+2] [Mn^2+] here?
**A.** increased

**Q.** For NC(=O)N[C@@H](C(=O)O)c1ccccc1 [N-Carbamyl-D-phenylglycine], which “Substrate conversion, Blastobacter sp. A 17 p-4 (conversion to amino acids)” value [2] is on record?
**A.** +++ (+++: <80%)

**Q.** What about the “Substrate conversion, Comamonas sp. E 222 c (conversion to amino acids)” value [3] of the same molecule?
**A.** +++ (+++: <80%)
